Measurements taken from patent publication US9827237B2, “Compounds useful for treating diseases caused by retroviruses” (ABIVAX, priority 2013, dated 2017).

System: HTLV-1
Experiment: Inhibition of HTLV-1: Tax-1 protein expression by western blotting in HUT102 cells
Format: cell-based, Human T-lymphotropic virus (HTLV)
Conditions: HUT102 (HTLV-1 chronically infected) cells, 10 μM daily for three days; western blot, normalised by tubulin, related to DMSO treated cells; triplicate
Protocol: To determine whether the compounds described above could act as HTLV inhibitors, a screen was performed on HUT102 (HTLV-1 chronically infected) cells.
Cells were plated at a density of 150 000 cells per well in 96 wells plates and treated daily with 10 μM of compounds for three days.
Cells were then harvested and an aliquot was used for cytotoxicity evaluation with Cell Titer (Promega).
The remaining cells was washed in phosphate buffer saline (PBS) and lysed for protein quantification with Bradford Assay (Sigma).
Then, HTLV Tax-1 protein expression was evaluated from 30 μg of total proteins by western blotting analysis.
Tax-1 expression was normalised by tubulin expression and related to control (DMSO treated) cells. Each compound was tested in triplicate.

COc1ccc(Nc2ccc3c(N4CCN(C)CC4)ccnc3c2)cc1 [Compound 166, N-(4-methoxyphenyl)-4-(4-methylpiperazin-1-yl)quinolin-7-amine]
reduced Tax-1 expression when compared to control: 80%
